Earlier results on two compounds are cited in US12291505B2, “Methods for the synthesis of deuterated dextromethorphan” (AVANIR PHARMACEUTICALS, INC., priority 2016, dated 2025).

As usually defined, the pKi is the Ki on a negative log10 scale, so that one unit is a factor of ten.

pKi: −log10 of the molar value.

Series [1] concerns the target norepinephrine transporter (Homo sapiens, UniProt P23975). To be noted: read-out: Ki, norepinephrine transporter affinity.
A further series concerns the target uptake of norepinephrine. To be noted: read-out: Ki, inhibition of uptake of norepinephrine.
In series [2] the target is N-methyl-D-aspartate (NMDA) receptor. To be noted: weak uncompetitive antagonist.
The target in another series is sigma-1 (Homo sapiens, UniProt Q99720). To be noted: read-out: Ki, sigma-1; sigma-1 agonist.
Sequence of sigma-1 (Q99720 whole entry): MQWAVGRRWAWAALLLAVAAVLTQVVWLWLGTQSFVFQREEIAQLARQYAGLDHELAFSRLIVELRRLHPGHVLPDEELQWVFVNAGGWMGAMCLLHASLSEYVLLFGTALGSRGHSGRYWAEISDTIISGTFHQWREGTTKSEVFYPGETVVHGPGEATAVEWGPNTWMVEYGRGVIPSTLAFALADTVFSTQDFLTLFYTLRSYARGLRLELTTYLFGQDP
The conditions of series [3]: co-administered with dextromethorphan.

Sequence of norepinephrine transporter (P23975 whole entry, species assumed): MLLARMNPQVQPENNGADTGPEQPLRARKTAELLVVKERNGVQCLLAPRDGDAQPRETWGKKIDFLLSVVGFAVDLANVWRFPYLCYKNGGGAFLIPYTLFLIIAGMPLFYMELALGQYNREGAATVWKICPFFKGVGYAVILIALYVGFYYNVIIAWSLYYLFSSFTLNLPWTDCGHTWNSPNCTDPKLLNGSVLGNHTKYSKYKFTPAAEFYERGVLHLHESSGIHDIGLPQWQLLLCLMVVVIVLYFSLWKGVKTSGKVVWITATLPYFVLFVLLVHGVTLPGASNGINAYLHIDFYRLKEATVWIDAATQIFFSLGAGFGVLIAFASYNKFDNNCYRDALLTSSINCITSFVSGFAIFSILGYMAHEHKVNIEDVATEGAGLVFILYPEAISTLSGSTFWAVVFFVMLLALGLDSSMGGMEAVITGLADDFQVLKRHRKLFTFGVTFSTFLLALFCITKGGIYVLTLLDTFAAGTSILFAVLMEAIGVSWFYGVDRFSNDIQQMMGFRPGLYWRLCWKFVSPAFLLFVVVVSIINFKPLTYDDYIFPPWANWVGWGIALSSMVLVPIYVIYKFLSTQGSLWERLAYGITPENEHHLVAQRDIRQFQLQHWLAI

For the compound `COc1ccc2c(c1)[C@]13CCCC[C@@H]1[C@H](C2)N(C)CC3` [DM, (+)-3-methoxy-17-methyl-(9α,13α,14α)-morphinan], the pKi was 4.89 in series [1], 6.62 on uptake of norepinephrine, 5.82 in series [2] and 6.70 at sigma-1.
For `C=C[C@H]1C[N@@]2CC[C@H]1C[C@@H]2[C@@H](O)c1ccnc2ccc(OC)cc12` [Quinidine], the “effect on dextromethorphan in the blood” value in series [3] is recorded as “greatly increases the quantity of dextromethorphan circulating in the blood”.
